Counter-ions that a name gives are not always drawn. *1 amine or outer side, *2 acyl side, *3 side chain or, on linkers, in order; H or OH if unused. Where a SMILES comes first, the peptide text is derived from it. Bridges are numbered along the chain shown (N, C = ends). [ ]: non-standard residue; d: D form. The star is where a group is joined. X1 = NC1=N[C@@H](O)C[C@H]([C@H](N[*:1])C(=O)[*:2])N1; ΔAla(Z-3-ureido) = NC(=O)N/C=C(\N)C(=O)O; β3hOrn = NCCC[C@H](N)CC(=O)*; Dap = NC[C@H](N)C(=O)O

T2 sequence (P10636 1-412 isoform P10636-7): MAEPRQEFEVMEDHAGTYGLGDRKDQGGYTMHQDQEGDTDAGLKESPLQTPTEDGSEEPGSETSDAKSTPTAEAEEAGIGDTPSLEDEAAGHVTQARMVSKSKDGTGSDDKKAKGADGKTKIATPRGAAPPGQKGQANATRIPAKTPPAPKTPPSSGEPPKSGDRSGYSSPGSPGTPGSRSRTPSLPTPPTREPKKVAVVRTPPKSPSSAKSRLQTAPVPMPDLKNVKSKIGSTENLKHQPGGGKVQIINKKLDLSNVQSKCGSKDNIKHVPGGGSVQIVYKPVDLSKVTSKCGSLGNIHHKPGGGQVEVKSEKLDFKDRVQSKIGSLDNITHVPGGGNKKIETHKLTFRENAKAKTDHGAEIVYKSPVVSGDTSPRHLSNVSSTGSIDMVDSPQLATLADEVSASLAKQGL

In one assay the test system is T1, 1N4R p-tau.
T1 construct: made in house; host or cells: E. coli (PIMAX system)
Nature of the assay: p-tau aggregation modulator screen of 1280-compound library (ThS fluorescence net change over 16 h). Also on record: key to PTAI>3SD: *: PTAI>3SD. It counts as biochemical.
Conditions: not given
Turning to `Oc1c(Cl)cc(Cl)c(Cl)c1Cc1c(O)c(Cl)cc(Cl)c1Cl` [Hexachlorophene, hexachlorophene], the “PTAI>3SD” value is listed as “*” and the ThS net change is reported as 74.
Compound `Cc1cc(C(C)(C)C)cc(C)c1CC1=NCCN1` [Xylometazoline hydrochloride] showed a ThS net change of 295.
As to `CN(C)C/C=C(\c1ccc(Br)cc1)c1cccnc1.Cl.Cl.O` [Zimelidine dihydrochloride monohydrate], the ThS net change is recorded as 325.
Beta-Escin: the ThS net change is 471.
On to Hydralazine hydrochloride, for which the ThS net change was 214.
Compound Lymecycline came in with a ThS net change of 312.
On to Merbromin, for which the ThS net change was 306.
With Tropisetron HCl, the ThS net change stood at 428.

The assay is the same for the next values; noted with them: 30 µM compound, 6 µM p-tau, 16 h.
Turning to `CC/C(=C(/CC)c1ccc(O)cc1)c1ccc(O)cc1` [diethylstilbestrol, reference compound], the “effect on p-tau aggregation in pilot screen” value is recorded as “none of them affected p-tau aggregation”.
Consider `CC/C(=C(\c1ccccc1)c1ccc(OCCN(C)C)cc1)c1ccccc1` [tamoxifen, reference compound], for which the “effect on p-tau aggregation in pilot screen” value was “none of them affected p-tau aggregation”.

The assay is the same for the next values; noted with them: 1280-compound library screen; ThS fluorescence net change over 16 h.
The compound `O=C(CCCCCCC(=O)Nc1ccccc1)NO` [Vorinostat] had a ThS net change of 398.
In the case of `Nc1ccn([C@H]2CC[C@@H](CO)O2)c(=O)n1` [Zalcitabine], the ThS net change came to 410.
Same read-out and setting: to `CC(c1cc2ccccc2s1)N(O)C(N)=O` (centres unmarked) [Zileuton] belongs 410; to `CN(C)CCOC1=Cc2ccccc2Sc2ccc(Cl)cc21` [Zotepine], 388; to `Cl.Cl.OCCN1CCN(CC/C=C2/c3ccccc3Sc3ccc(Cl)cc32)CC1` [Zuclopenthixol dihydrochloride], 398.
As for `CC/C(=C(/CC)c1ccc(O)cc1)c1ccc(O)cc1` [diethylstilbestrol, reference compound], the ThS net change was 406.
On to Minoxidil, for which the ThS net change was 412.

The same assay, now with this note: 1280-compound library screen; […].
`O=P(O)(O)C(O)(Cn1ccnc1)P(=O)(O)O` [Zoledronic acid hydrate] had a ThS net change of 398.
On to `CN1CCN(C(=O)OC2c3nccnc3C(=O)N2c2ccc(Cl)cn2)CC1` (centres unmarked) [Zopiclone], for which the ThS net change was found to be 407.
On to Molsidomine, for which the ThS net change is given as 401.

The assay is the same for the next values; noted with them: flag: p-tau aggregation inhibitor, ThS net change more than 3 SD from mean.
On to `COC(=O)C1=C(C)NC(C)=C(C(=O)OC)C1c1ccccc1[N+](=O)[O-]` [Nifedipine, nifedipine, reference compound], for which the “PTAI>3SD” value was “*”.

The same assay, now with this note: library screen, ThS fluorescence net change over 16 h with p-tau.
Take `COC(=O)C1=C(C)NC(C)=C(C(=O)OC)C1c1ccccc1[N+](=O)[O-]` [Nifedipine, nifedipine, reference compound]: the ThS net change is given as -97.
The compound `O=C1Cc2cc(CCN3CCN(c4nsc5ccccc45)CC3)c(Cl)cc2N1` [Ziprasidone Hydrochloride] registered a ThS net change of 293.

The same assay, now with this note: p-tau aggregation modulator screen of 1280-compound library; ThS fluorescence net change.
The compound `CCOC(=O)C1=C[C@]2(CC)CCCN3CCc4c(n1c1ccccc41)[C@@H]32` [Vinpocetine] yielded a ThS net change of 370.
Compound `O=C(NCCNCC(O)COc1ccc(O)cc1)N1CCOCC1` (centres unmarked) [Xamoterol hemifumarate] showed a ThS net change of 378.
Compound `CCCOc1ccccc1-c1nc2nn[nH]c2c(=O)[nH]1` [Zaprinast] yielded a ThS net change of 335.
Compound `Cc1cc(CC(=O)[O-])n(C)c1C(=O)c1ccc(Cl)cc1.[Na+]` [Zomepirac sodium salt] had a ThS net change of 356.
As for `NS(=O)(=O)Cc1noc2ccccc12` [Zonisamide], the ThS net change is recorded as 341.

The same assay, now with this note: p-tau aggregation modulator screen of 1280-compound library; […].
`Cc1cccc(C)c1N=C1NCCCS1` [Xylazine] gave a ThS net change of 366.
As for `CCN(C(C)=O)c1cccc(-c2ccnc3c(C#N)cnn23)c1` [Zaleplon], the ThS net change stood at 368.
In turn, Deoxycorticosterone returned a ThS net change of 346.

The same assay, now with this note: p-tau aggregation modulator screen of the compound library, ThS fluorescence net change.
Compound `NCCC[C@H](N)CC(=O)N[C@H]1CNC(=O)[C@H]([C@H]2C[C@H](O)N=C(N)N2)NC(=O)/C(=C/NC(N)=O)NC(=O)[C@H](CO)NC(=O)[C@H](CO)NC1=O.O=S(=O)(O)O` [Viomycin sulfate] (β3hOrn-[Dap]SS[ΔAla(Z-3-ureido)][X1]; lactam 1-C) came in with a ThS net change of 453.
In the case of `C[C@@H](c1ncncc1F)[C@](O)(Cn1cncn1)c1ccc(F)cc1F` [Voriconazole], the ThS net change was determined as 435.
The same measure, in the same setting: as for `CC(=O)CC(c1ccccc1)c1c(O)c2ccccc2oc1=O` (centres unmarked) [Warfarin], the figure is 413; as for `COC(=O)[C@@H]1[C@H]2C[C@H]3c4[nH]c5ccccc5c4CCN3C[C@@H]2CC[C@@H]1O` [Yohimbine hydrochloride], 418; as for `COc1cc(C(=O)NS(=O)(=O)c2ccccc2C)ccc1Cc1cn(C)c2ccc(NC(=O)OC3CCCC3)cc12` [Zafirlukast], 549.
As to `COc1cc(-c2ccc(=O)[nH]n2)ccc1OC(F)F` [Zardaverine], the ThS net change was determined as 454.
The compound `Cc1cn([C@H]2C[C@H](N=[N+]=[N-])[C@@H](CO)O2)c(=O)[nH]c1=O` [Zidovudine, AZT] gave a ThS net change of 448.
For Josamycin, the ThS net change worked out at 446.
In the case of Olmesartan, the ThS net change stood at 482.
As to Tyloxapol, the ThS net change was 577.

A further assay addresses T2, p-tau (Homo sapiens, UniProt P10636).
T2 construct: made in house; host or cells: E. coli (PIMAX system)
Nature of the assay: p-tau aggregation assay, dose response (ThS fluorescence, inducer-free).
Conditions: not given
It is filed as biochemical. As for the experimental part: Aggregation of 6-µM p-tau under the influence of 30 µM of each of the library compounds or a DMSO vehicle control was monitored in 384-well plates every 10 min for ThS fluorescence changes over 16 h. To assess the quality of the high-throughput p-tau aggregation reactions, we used the T0 and T16hr ThS fluorescence units of no-compound control reactions to calculate the Z′-factor and coefficient of variation (CV), two commonly used criteria for robustness of high-throughput screens (HTS)[62]. A Z′-factor greater than 0.5 and CV smaller than 10% indicate robustness. […] To identify compounds with significant p-tau aggregation modulation, the net change of ThS fluorescence was calculated from all reactions (see Supplemental Table 1 for complete listing).
Aggregation of 6 µM of p-tau was done in the presence of the indicated concentrations of either compound. […] P-tau aggregation reactions with the C291S C322S (C/S) mutant p-tau were done in the presence of the indicated amounts of either compound. Shown are net changes of ThS over 16 h.
Given the tremendous socioeconomical burdens of AD, measures that prevent or delay the onset of the devastating neurodegeneration of AD will be highly impactful. If hyperphosphorylated tau-inflicted neuronal damages are an underpinning for AD and other tauopathies, enhancers of p-tau aggregation (PTAEs) may be risk factors for neurodegeneration. […] Prednicarbate is a synthetic corticosteroid for dermatological use, and carmofur (1-hexylcarbamoyl-5-fluorouracil) is an anti-neoplastic pyrimidine analogue. […] BZDs are among the most widely prescribed medication, in particular to the elderly, for depression and insomnia[70],[71]. We hypothesized that certain BZDs acted as a PTAE to potentiate p-tau aggregation and cytotoxicity. […] We therefore randomly picked nine prescription BZDs for p-tau aggregation assessment (Fig. 6; see Supplemental Fig. 5 for chemical structures). To 6-µM p-tau aggregation reactions, increasing doses of each of these BZDs were added.
Prednicarbate, a synthetic steroid, served as a PTAE control (yellow bars).
The aggregation assays over the course of this project have been done with multi-plate readers from different sources.
A common mix of 6 µM p-tau, 20 mM Tris pH 7.4, 1 mM DTT, and 20 µM ThS was assembled and dispensed to 384-well low-volume plates (10 µl per well) using BioTek EL406 Washer, followed by the addition of 150 nl of the Prestwick Library compounds (final concentration of 30 µM per well) or DMSO in a Beckman Coulter Biomek FX^P workstation. Each plate was covered with an Optical Adhesive Film and incubated at 37 °C for about 10 min. ThS fluorescence was measured every 10 min at 440/490 nm for 16 h by Biotek Synergy Neo Plate Reader. […] The real-time kinetics of ThS signals were collected using Gen5 software.
In general, EC50 refers to the concentration that produces a half-maximal response. In the case of `Oc1c(Cl)cc(Cl)c(Cl)c1Cc1c(O)c(Cl)cc(Cl)c1Cl` [Hexachlorophene, hexachlorophene], the EC50 turned out to be 17.8 µM.

The same assay, now with this note: 6 µM p-tau, 6.25-150 µM benzodiazepine.
In the case of `CN1C(=O)CN=C(c2ccccc2)c2cc(Cl)ccc21` [diazepam], the “effect on p-tau aggregation (16-h net change of ThS fluorescence)” value is given as “enhanced p-tau aggregation in a dose-dependent manner”.
For the compound `CCN(CC)CCN1C(=O)CN=C(c2ccccc2F)c2cc(Cl)ccc21` [flurazepam], the “effect on p-tau aggregation (16-h net change of ThS fluorescence)” value is listed as “enhanced p-tau aggregation in a dose-dependent manner”.
For `CN1C(=O)CN=C(c2ccccc2)c2cc([N+](=O)[O-])ccc21` [nimetazepam], the “effect on p-tau aggregation (16-h net change of ThS fluorescence)” value is “did not”.
Take `O=C1CN=C(c2ccccc2)c2cc(Cl)ccc2N1` [nordiazepam]: the “effect on p-tau aggregation (16-h net change of ThS fluorescence)” value was “did not”.
For the compound `O=C1Nc2ccc(Cl)cc2C(c2ccccc2)=NC1O` (centres unmarked) [oxazepam], the “effect on p-tau aggregation (16-h net change of ThS fluorescence)” value is “did not”.
`CN1C(=O)C(O)N=C(c2ccccc2)c2cc(Cl)ccc21` (centres unmarked) [temazepam]: the “effect on p-tau aggregation (16-h net change of ThS fluorescence)” value was “enhanced p-tau aggregation in a dose-dependent manner”.

Still in this assay, the particulars now being: 6 µM p-tau, ThS fluorescence.
As for `COC(=O)C1=C(C)NC(C)=C(C(=O)OC)C1c1ccccc1[N+](=O)[O-]` [Nifedipine, nifedipine, reference compound], the EC50 is 24.3 µM.
